No end group written: not given here.
Experiments:
[1] = Absorption and emission spectra of fluoresceins and SDMA conjugates (Example 33); assay type: physicochemical; details: PBS buffer
Description: The maximum absorption of fluorescein (Fl) in PBS buffer is at 489 nm and the maximum fluorescence emission is at 515 nm. When the fluorescein molecule is conjugated with an SDMA molecule via a —CH2NH— linker (i.e., to provide SDMA-Fl), its maximum absorption and emission are shifted to 495 nm and 525 nm, respectively. When the fluorescein molecule is substituted by fluorine at the 2′ and 7′ positions (i.e., to provide DFF) there is no any change in the maximum absorption and emission compared to unsubstituted fluorescein. When the fluorescein molecule is substituted by chloride at the 2′ and 7′ positions (i.e., to provide DCF) the maximum absorption and emission are red-shifted to 500 nm and 525 nm, respectively. Also conjugating DFF or DCF to SDMA via a —CH2NH— linker (i.e., to provide SDMA-DFF and SDMA DCF, respectively) results in the maximum absorption and emission being red-shifted. The maximum absorption and emission wavelengths of fluorescein (FL), 2′,7′-difluorofluorescien (DFF), 2′,7′-dichlorofluorescien (DCF), and their conjugates with SDMA via a —CH2NH— linker (i.e., SDMA-Fl (i.e., structure A3), SDMA-DFF, and SDMA-DCF) are listed in the Table provided below. The absorption spectra of DFF, SDMA-DFF, DCF, SDMA-DCF, Fl, and SDMA-FL are depicted in FIG. 25A and the emission spectra of SDMA-DFF, SDMA-DCF, Fl, and SDMA-FL are depicted in FIG. 25B.

anti-T4 antibody = assay: Maximum percentage fluorescence quenching of T2-F, T3-F, T4-F by anti-T4 antibody with and without quencher label (Example 27 table); assay type: binding
Description: In another experiment, tracer T2-F, T3-F, or T4-F was dissolved in DMSO to provide a DMSO solution at a tracer concentration of 1 mM. The DMSO solution was then diluted with phosphate buffered saline (“PBS”) to provide a stock solution of each tracer at a concentration of 10 μM. Monoclonal anti-T4-Mab or anti-T4-Mab conjugated to a quencher (Cy3-Ab, IRdyeQC1-Ab, Cy5-Ab, BHQ1-Ab) were serially diluted in PBS to provide solutions having an Anti-T4-Mab or anti-T4-Mab conjugated to quencher at concentration ranging from 0 to 2 μM. In a 96 well black assay plate containing the serially diluted Anti-T4-Mab or anti-T4-Mab conjugated to quencher (95 μL) was added the tracer T2-F, T3-F, or T4-F solution (5 μL), mixed well, and incubated for 30 min and the fluorescence intensities then recorded at an excitation wavelength of 485 nm and an emission wavelength of 520 nm. The results of maximum percentage fluorescence quenching for different tracers and quencher-modified antibodies are provided in the following Table: […]

anti-T4-Mab = assay: Fluorescence of T3 tracers and anti-T4-Mab in the presence of T4 (Example 20); assay type: binding; details: PBS, tracer and antibody equimolar
Description: Similar solutions were prepared and the fluorescence measured except that the T3-F was replaced with T3-5-F, T3-E-F and T3-FITC.

[2] = tested on: Monoclonal anti-NT-proBNP antibody (ADX-15 Mab); assay: Fluorescence quenching of canine NT-proBNP peptide-Fl/DFF conjugates by anti-NT-proBNP Mab and Ab-BHQ10 (Example 52); assay type: binding; details: for Percentage Fluorescence Quenching, DFF Conjugate, Ab-BHQ10 / Percentage Fluorescence Quenching, DFF Conjugate, Ab: NT-proBNP peptide-difluorofluorescein conjugate; for Percentage Fluorescence Quenching, DFF Conjugate, Ab-BHQ10 / Percentage Fluorescence Quenching, F1 Conjugate, Ab-BHQ10: mAb-BHQ10; for Percentage Fluorescence Quenching, DFF Conjugate, Ab-BHQ10 / Percentage Fluorescence Quenching, DFF Conjugate, Ab / Percentage Fluorescence Quenching, F1 Conjugate, Ab-BHQ10: molar ratio of 1:1; for Percentage Fluorescence Quenching, DFF Conjugate, Ab-BHQ10 / Percentage Fluorescence Quenching, DFF Conjugate, Ab / Percentage Fluorescence Quenching, F1 Conjugate, Ab / Percentage Fluorescence Quenching, F1 Conjugate, Ab-BHQ10: No = No Quenching; for Percentage Fluorescence Quenching, F1 Conjugate, Ab / Percentage Fluorescence Quenching, F1 Conjugate, Ab-BHQ10: NT-proBNP peptide-fluorescein conjugate; for Percentage Fluorescence Quenching, F1 Conjugate, Ab: Ab/Conjugate molar ratio of 1:1; for quenching of peptide-Fl or -DFF conjugates upon addition of antibody or antibody-BHQ10: any molar ratio from 1:1 to 8:1; for fluorescence quenching: ratio of 8:1; for fluorescence quenching reached (up to) by anti-NT-proBNP antibody: unmodified antibody, titration 0 to 800 nM
Description: NT-proBNP peptide-fluorescein (Fl) or -difluorofluorescein (DFF) conjugates were dissolved in DMSO (0.4 mM) and diluted with PBS to provide a stock solution (100 nM). Monoclonal anti-NT-proBNP antibody (ADX-15 Mab, IDEXX Laboratories Inc. of Westbrook, ME) (6.84 mg/ml) was serially diluted in PBS buffer to provide solutions having an antibody concentration ranging from 0 to 800 nM in PBS. In a 96 well black assay plate containing the serially diluted antibody solution (50 μL) was added the P1-Fl or P1-DFF, or other peptide-Fl or Peptide-DFF solution (50 μL), mixed well, incubated for 30 min and the fluorescence intensities recorded (excitation at 485 nm and emission at 520 nm). The results are provided in FIG. 47, FIG. 48, and Table 2.

[3] = tested on: Monoclonal anti-CysB antibody (7C2); assay: Fluorescence quenching of canine CysB peptide-Fl/DFF conjugates by anti-CysB Mab or Mab-BHQ10 (Example 51); assay type: binding, mouse
Description: CysB peptide-fluorescein (Fl) or -difluorofluorescein (DFF) conjugates were dissolved in DMSO (0.5 mM) and diluted with Tris Buffer ([…] at pH8.0) to provide a stock solution (100 nM). Monoclonal anti-CysB antibody (7C2, raised against a peptide having the amino acid sequence of SEQ ID NO: 14) (8 mg/ml) was serially diluted in PBS buffer to provide solutions having an Anti-CysB-Mab concentration ranging from 0 to 800 nM in Tris buffer (50 mM at pH 8.0 with 0.5% sarkosyl (sodium lauroyl sarcosinate)). In a 96-well black assay plate containing the serially diluted Anti-CysB-Mab solution (50 μL) was added the peptide-Fl or peptide-DFF solution (50 μL), mixed well, incubated for 30 min and the fluorescence intensities recorded. The results are provided in FIG. 38, 39, 40, and Table 1.

anti-CysB Mab = assay: Peptide/full length canine CysB protein dose response in Tris buffer and serum (Example 51); assay type: binding, mouse; details: for fluorescence intensity as a function of CysB peptide concentration: peptide 0 to 3200 nM added to mixture of antibody and P6-Fl or P6-DFF, Tris buffer
Description: A mixture of CysB P6-Fl or P6-DFF in Tris buffer with 0.1% Tween 20 (200 nM, 25 μL) and anti-Cys-Mab in Tris buffer with 0.1% Tween 20 (400 nM, 25 μL) was incubated at room temperature for 30 min in the wells of a 96 well black assay plate. A series of CysB peptides P6, P7, and P14 standard solutions having peptide concentrations ranging from 0 to 3200 nM (50 μL) were then added to the mixtures of the P6-Fl or P6-DFF and anti-CysB Mab in Tris Buffer. The plate was then incubated for 30 min at room temperature and the fluorescence intensities recorded at an excitation of 485 nm and an emission of 520 nm. The results are shown in FIG. 43, FIG. 44, FIG. 45, and FIG. 46.

For `O=C1OC2(c3cc(Cl)c(O)cc3Oc3cc(O)c(Cl)cc32)c2ccccc21` [DCF, 2′,7′-dichlorofluorescien], the “Max Absorption” value [1] was 500 nm and the “Max Emision” value [1] was 525 nm.

For `O=C1OC2(c3cc(F)c(O)cc3Oc3cc(O)c(F)cc32)c2ccccc21` [DFF, 2′,7′-difluorofluorescien], the “Max Absorption” value [1] was 489 nm and the “Max Emision” value [1] was 515 nm.

With `O=C(O)c1ccccc1-c1c2ccc(=O)cc-2oc2cc(O)ccc12` [Fl, fluorescein] the “Max Absorption” value [1] was 489 nm, the “Max Emision” value [1] was 515 nm and the “Max Absorption” value ([1]; listed as FI) was 483 nm.

For `CNC(=NCCCC(N)C(=O)NCc1c(O)c(Cl)cc2c(-c3ccccc3C(=O)O)c3cc(Cl)c(=O)cc-3oc12)NC` (stereo not shown) [SDMA-DCF], the “Max Absorption” value [1] was 510 nm and the “Max Emision” value [1] was 535 nm.

In the case of `O=C(O)c1ccccc1-c1c2ccc(=O)cc-2oc2c(CNC(Cc3cc(I)c(Oc4ccc(O)cc4)c(I)c3)C(=O)O)c(O)ccc12` (stereo not shown) [T2-F], the “Percentage of fluorescence quenching, BHQ1-Ab” value (anti-T4 antibody; anti-T4-Mab conjugated to BHQ1) is reported as 11%, the “Percentage of fluorescence quenching, Cy5-Ab” value (anti-T4 antibody; anti-T4-Mab conjugated to Cy5) is reported as 16% and the “Percentage of fluorescence quenching, IRdyeQC1-Ab” value (anti-T4 antibody; anti-T4-Mab conjugated to IRdyeQC1) is reported as 8%. For the same molecule, the “Percentage of fluorescence quenching, Ab” value (anti-T4 antibody; anti-T4-Mab without quencher) was 22%.

With `O=C(NC(Cc1cc(I)c(Oc2ccc(O)c(I)c2)c(I)c1)C(=O)O)c1ccc(-c2c3ccc(=O)cc-3oc3cc(O)ccc23)c(C(=O)O)c1` (stereo not shown) [T3-5-F, T3-5-Fluorescein] the “fluorescence quenching by anti-T4-Mab” value (anti-T4-Mab) was “not quenched”.

In the case of `O=C(O)c1ccccc1-c1c2ccc(=O)cc-2oc2c(CNCCNC(Cc3cc(I)c(Oc4ccc(O)c(I)c4)c(I)c3)C(=O)O)c(O)ccc12` (stereo not shown) [T3-E-F, T3-Ethyl-Fluorescein], the “fluorescence quenching by anti-T4-Mab” value (anti-T4-Mab) is reported as “quenched”.

In the case of `O=C(O)c1cc(NC(=S)NC(Cc2cc(I)c(Oc3ccc(O)c(I)c3)c(I)c2)C(=O)O)ccc1-c1c2ccc(=O)cc-2oc2cc(O)ccc12` (stereo not shown) [T3-FITC], the “fluorescence quenching by anti-T4-Mab” value (anti-T4-Mab) is reported as “not quenched”.

With AEQLAL [P2] the “Percentage Fluorescence Quenching, DFF Conjugate, Ab-BHQ10” value [2] was “No”, the “Percentage Fluorescence Quenching, DFF Conjugate, Ab” value [2] was “No” and the “Percentage Fluorescence Quenching, F1 Conjugate, Ab” value [2] was “No”. The “Percentage Fluorescence Quenching, F1 Conjugate, Ab-BHQ10” value [2] was “No” and the “quenching of peptide-Fl or -DFF conjugates upon addition of antibody or antibody-BHQ10” value [2] was “no quenching”.

For EPLHRS [P3], the “Percentage Fluorescence Quenching, DFF Conjugate, Ab-BHQ10” value [2] was “No”, the “Percentage Fluorescence Quenching, DFF Conjugate, Ab” value [2] was “No” and the “Percentage Fluorescence Quenching, F1 Conjugate, Ab” value [2] was “No”. The “Percentage Fluorescence Quenching, F1 Conjugate, Ab-BHQ10” value [2] was “No” and the “quenching of peptide-Fl or -DFF conjugates upon addition of antibody or antibody-BHQ10” value [2] was “no quenching”.

In the case of GHDELAYF [P7, canine CysB peptide], the “Percentage Fluorescence Quenching, DFF Conjugate At 5-Position” value ([3]; CysB peptide conjugated to 5-position of difluorofluorescein, Ab/Conjugate ratio = 2/1) is reported as 5%, the “Percentage Fluorescence Quenching, F1 Conjugate At 5-Position” value ([3]; CysB peptide conjugated to 5-position of fluorescein, Ab/Conjugate ratio = 2/1) is reported as 5% and the “fluorescence intensity as a function of CysB peptide concentration” value (anti-CysB Mab) is reported as “a dose response was observed”.

For “NT-proBNP P6-Fl: NT-proBNP peptide LEPLHRS conjugated to 5-position of fluorescein (also: conjugated to 5-position of fluorescein, peptide site not given here)”, the fluorescence quenching [2] was “approximately 10%”.

With “P1-DFF: NT-proBNP peptide AEQLALEPLHRS conjugated to 5-position of DFF (also: conjugated to 5-position of DFF, peptide site not given here)” the “fluorescence quenching reached (up to) by anti-NT-proBNP antibody-BHQ10” value [2] was “approximately 65%” and the “fluorescence quenching reached (up to) by anti-NT-proBNP antibody” value [2] was “approximately 70%”.

With “P1-Fl: NT-proBNP peptide AEQLALEPLHRS conjugated to 5-position of fluorescein (also: conjugated to 5-position of fluorescein, peptide site not given here)” the “fluorescence quenching reached (up to) by anti-NT-proBNP antibody-BHQ10” value [2] was 40% and the “fluorescence quenching reached (up to) by anti-NT-proBNP antibody” value [2] was 70%.

For “P5-Fl: CysB peptide GELAYF conjugated to 5-position of fluorescein (also: conjugated to 5-position of fluorescein, peptide site not given here)”, the “quenching of 4′-position conjugate compared with 5-position conjugate” value ([3]; anti-CysB mAb) was “higher quenching”.

In the case of “P6-DFF: CysB peptide GDELAYF conjugated to 5-position of DFF (also: conjugated to 5-position of DFF, peptide site not given here)”, the Maximum quenching ([3]; anti-CysB-Mab, molar ratio of about 4:1) is reported as roughly 45% and the fluorescence quenching [2] is reported as “approximately 10%”.

In the case of “P6-Fl: CysB peptide GDELAYF conjugated to 5-position of fluorescein (also: conjugated to 5-position of fluorescein, peptide site not given here)”, the “quenching by anti-CysB Mab-BHQ10 relative to un-modified mAb” value [3] is reported as “slightly higher” and the fluorescence quenching ([3]; molar ratio of antibody to P6-Fl of about 8:1, unmodified anti-CysB-Mab) is reported as roughly 30%.

With “P7-Fl: CysB peptide GHDELAYF conjugated to 5-position of fluorescein (also: conjugated to 5-position of fluorescein, peptide site not given here)” the “fluorescence quenching relative to P6-Fl” value ([3]; anti-CysB-Mab) was “weaker quenching”.

With YQTNKAKHDELAYF [P14] the “fluorescence intensity as a function of CysB peptide concentration” value (anti-CysB Mab) was “a dose response was observed”.

B1: CysB full length protein: canine cystatin-B, SEQ ID NO: 1 (protein, listed as Canis familiaris)
chain: MMCGAPSASQPATADTQAIADQVKAQLEERENKKYTTFKAVTFRSQVVAGTPYFIKVQVDDDEFVHLRVFQSLPHENKPLALSSYQTNKAKHDELAYF
In the case of B1, the “fluorescence intensity as a function of CysB full length protein concentration” value (anti-CysB Mab; added to mixture of antibody and tracer in the presence of varying concentrations of sarkosyl) is reported as “a dose response was observed” and the “dose response of CysB full length protein in serum” value (anti-CysB Mab; antibody or antibody-BHQ10 with P6-Fl or P6-DFF, sarkosyl (1%)) is reported as “dose response was also observed”.

Source: US12345641B2, “Fluorescence quenching immunoassay” (IDEXX Laboratories, Inc., priority 2020, dated 2025)
